How the values were obtained:
Assay in all cases: cells
NB5 = format: functional, cell-based, Homo sapiens; details: Homo sapiens, NB5;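 note: growth inhibition of NB5 cells, read out as cell viability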
Description: SANGER: Inhibition of human NB5 cell growth in a cell viability assay.

LU-134-A = format: functional, cell-based; details: Homo sapiens
Description: SANGER: Inhibition of human LU-134-A cell growth in a cell viability assay.

Hs-578T = format: functional, cell-based, Homo sapiens; details: Homo sapiens, Hs-578T
Description: SANGER: Inhibition of human Hs-578-T cell growth in a cell viability assay.

MS-1 = format: functional, cell-based; details: Homo sapiens
Description: SANGER: Inhibition of human MS-1 cell growth in a cell viability assay.

EW-18 = format: functional, cell-based; details: Homo sapiens;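 note: growth inhibition of EW-18 cells, read out by a cell viability assay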
Description: SANGER: Inhibition of human EW-18 cell growth in a cell viability assay.

no-11 = format: functional, cell-based, Homo sapiens; details: Homo sapiens;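 note: growth inhibition of human NO-11 cells, read out with a cell viability assay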
Description: SANGER: Inhibition of human no-11 cell growth in a cell viability assay.

CTB-1 = format: functional, cell-based; details: Homo sapiens
Description: SANGER: Inhibition of human CTB-1 cell growth in a cell viability assay.

CAL-72 = format: functional, cell-based, Homo sapiens; details: Homo sapiens, CAL-72;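 note: cell viability assay measuring inhibition of proliferation in the CAL-72 cell line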
Description: SANGER: Inhibition of human CAL-72 cell growth in a cell viability assay.

NCI-H661 = format: functional, cell-based, Homo sapiens; details: Homo sapiens, NCI-H661;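 note: cell viability assay read-out, IC50 being the concentration that inhibits growth of the cells by half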
Description: SANGER: Inhibition of human NCI-H661 cell growth in a cell viability assay.

SW1710 = format: functional, cell-based, Homo sapiens; details: Homo sapiens, SW1710;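 note: growth inhibition of SW1710 cells, determined with a cell viability assay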
Description: SANGER: Inhibition of human SW1710 cell growth in a cell viability assay.

SBC-5 = format: functional, cell-based, Homo sapiens; details: Homo sapiens, SBC-5;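 note: cell viability assay read-out, IC50 is the concentration that inhibits growth of the cells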
Description: SANGER: Inhibition of human SBC-5 cell growth in a cell viability assay.

SK-PN-DW = format: functional, cell-based; details: Homo sapiens;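 note: growth inhibition measured with a viability assay on these cells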
Description: SANGER: Inhibition of human SK-PN-DW cell growth in a cell viability assay.

MCF7 = format: functional, cell-based, Homo sapiens; details: Homo sapiens, MCF7;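 note: growth inhibition of human MCF7 cells, read out with a cell viability assay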
Description: SANGER: Inhibition of human MCF7 cell growth in a cell viability assay.

HCC1419 = format: functional, cell-based, Homo sapiens; details: Homo sapiens, HCC1419;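 note: growth inhibition of human HCC1419 cells, read out as cell viability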
Description: SANGER: Inhibition of human HCC1419 cell growth in a cell viability assay.

CCRF-CEM = format: functional, cell-based; details: Homo sapiens;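 note: inhibition of CCRF-CEM cell growth, measured by a cell viability assay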
Description: SANGER: Inhibition of human CCRF-CEM cell growth in a cell viability assay.

HCC38 = format: functional, cell-based, Homo sapiens; details: Homo sapiens, HCC38;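 note: cell viability assay on the human HCC38 cell line, with IC50 marking the concentration that inhibits cell growth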
Description: SANGER: Inhibition of human HCC38 cell growth in a cell viability assay.

TE-9 = format: functional, cell-based, Homo sapiens; details: Homo sapiens, TE-9;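 note: cell growth inhibition, measured with a cell viability readout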
Description: SANGER: Inhibition of human TE-9 cell growth in a cell viability assay.

SK-MEL-28 = format: functional, cell-based; details: Homo sapiens;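 note: growth inhibition of human SK-MEL-28 cells, read out with a cell viability assay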
Description: SANGER: Inhibition of human SK-MEL-28 cell growth in a cell viability assay.

A204 = format: functional, cell-based, Homo sapiens; details: Homo sapiens, A204;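 note: growth inhibition of human A204 cells, read out with a cell viability assay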
Description: SANGER: Inhibition of human A204 cell growth in a cell viability assay.

M14 = format: functional, cell-based, Homo sapiens; details: Homo sapiens, M14;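 note: growth inhibition of M14 cells, read out with a cell viability assay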
Description: SANGER: Inhibition of human M14 cell growth in a cell viability assay.

HuP-T4 = format: functional, cell-based, Homo sapiens; details: Homo sapiens, HuP-T4;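 note: cell viability assay measuring how much HuP-T4 cell growth is inhibited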
Description: SANGER: Inhibition of human HuP-T4 cell growth in a cell viability assay.

CW-2 = format: functional, cell-based, Homo sapiens; details: Homo sapiens, CW-2;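 note: growth inhibition of CW-2 cells, read out by a cell viability assay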
Description: SANGER: Inhibition of human CW-2 cell growth in a cell viability assay.

U-266 = format: functional, cell-based; details: Homo sapiens
Description: SANGER: Inhibition of human U-266 cell growth in a cell viability assay.

A-427 = format: functional, cell-based, Homo sapiens; details: Homo sapiens, A-427;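 note: growth inhibition of human A-427 cells, read out by a cell viability assay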
Description: SANGER: Inhibition of human A427 cell growth in a cell viability assay.

PANC-08-13 = format: functional, cell-based, Homo sapiens; details: Homo sapiens, PANC-08-13;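 note: cell growth inhibition, measured with a cell viability assay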
Description: SANGER: Inhibition of human PANC-08-13 cell growth in a cell viability assay.

UACC-62 = format: functional, cell-based, Homo sapiens; details: Homo sapiens, UACC-62;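 note: growth inhibition of human UACC-62 cells, read out by a cell viability assay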
Description: SANGER: Inhibition of human UACC-62 cell growth in a cell viability assay.

NCI-H727 = format: functional, cell-based, Homo sapiens; details: Homo sapiens, NCI-H727;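 note: growth inhibition of human NCI-H727 cells, read out with a cell viability assay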
Description: SANGER: Inhibition of human NCI-H727 cell growth in a cell viability assay.

RD = format: functional, cell-based, Homo sapiens; details: Homo sapiens, RD
Description: SANGER: Inhibition of human RD cell growth in a cell viability assay.

NCI-H1581 = format: functional, cell-based, Homo sapiens; details: Homo sapiens, NCI-H1581;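 note: cell growth inhibition read out by a viability assay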
Description: SANGER: Inhibition of human NCI-H1581 cell growth in a cell viability assay.

NB13 = format: functional, cell-based, Homo sapiens; details: Homo sapiens, NB13;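 note: cell viability readout measuring growth inhibition of human NB13 cells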
Description: SANGER: Inhibition of human NB13 cell growth in a cell viability assay.

NCI-H2347 = format: functional, cell-based, Homo sapiens; details: Homo sapiens, NCI-H2347;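 note: growth inhibition of the cell line, read out with a cell viability assay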
Description: SANGER: Inhibition of human NCI-H2347 cell growth in a cell viability assay.

ETK-1 = format: functional, cell-based, Homo sapiens; details: Homo sapiens, ETK-1;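 note: growth inhibition of human ETK-1 cells, read out with a cell viability assay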
Description: SANGER: Inhibition of human ETK-1 cell growth in a cell viability assay.

BE-13 = format: functional, cell-based; details: Homo sapiens;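 note: growth inhibition of human BE-13 cells, measured with a cell viability assay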
Description: SANGER: Inhibition of human BE-13 cell growth in a cell viability assay.

CAL-120 = format: functional, cell-based, Homo sapiens; details: Homo sapiens, CAL-120;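 note: cell growth inhibition, read out as cell viability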
Description: SANGER: Inhibition of human CAL-120 cell growth in a cell viability assay.

CGTH-W-1 = format: functional, cell-based, Homo sapiens; details: Homo sapiens, CGTH-W-1;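 note: growth inhibition of human CGTH-W-1 cells measured by cell viability assay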
Description: SANGER: Inhibition of human CGTH-W-1 cell growth in a cell viability assay.

NOS-1 = format: functional, cell-based, Homo sapiens; details: Homo sapiens, NOS-1;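 note: growth inhibition of the human NOS-1 cell line, read out with a cell viability assay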
Description: SANGER: Inhibition of human NOS-1 cell growth in a cell viability assay.

NCI-H1299 = format: functional, cell-based, Homo sapiens; details: Homo sapiens, NCI-H1299;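 note: growth inhibition of human NCI-H1299 cells, read out by a cell viability assay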
Description: SANGER: Inhibition of human NCI-H1299 cell growth in a cell viability assay.

FaDu = format: functional, cell-based, Homo sapiens; details: Homo sapiens, FaDu;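 note: cell viability readout of growth inhibition in FaDu cells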
Description: SANGER: Inhibition of human FADU cell growth in a cell viability assay.

RS4-11 = format: functional, cell-based; details: Homo sapiens;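 note: growth inhibition of RS4-11 cells, read out by a cell viability assay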
Description: SANGER: Inhibition of human RS4-11 cell growth in a cell viability assay.

DMS-114 = format: functional, cell-based, Homo sapiens; details: Homo sapiens, DMS-114
UO-31 = format: functional, cell-based; details: Homo sapiens;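 note: cell viability assay measuring inhibition of cell growth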
Description: SANGER: Inhibition of human U031 cell growth in a cell viability assay.

ALL-PO = format: functional, cell-based; details: Homo sapiens;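 note: growth inhibition of ALL-PO cells, read out by a cell viability assay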
Description: SANGER: Inhibition of human ALL-PO cell growth in a cell viability assay.

KMOE-2 = format: functional, cell-based; details: Homo sapiens;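 note: growth inhibition of human KMOE-2 cells, read out with a cell viability assay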
Description: SANGER: Inhibition of human KMOE-2 cell growth in a cell viability assay.

NB10 = format: functional, cell-based, Homo sapiens; details: Homo sapiens, NB10;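 note: growth inhibition of NB10 cells, read out by a cell viability assay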
Description: SANGER: Inhibition of human NB10 cell growth in a cell viability assay.

U-251 = format: functional, cell-based, Homo sapiens; details: Homo sapiens, U-251;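 note: growth inhibition of human U-251 cells, read out through a cell viability assay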
Description: SANGER: Inhibition of human U251 cell growth in a cell viability assay.

PC-3 = format: functional, cell-based, Homo sapiens; details: Homo sapiens, PC-3;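 note: cell viability assay measuring growth inhibition of PC-3 cells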
Description: SANGER: Inhibition of human PC-3 cell growth in a cell viability assay.

RCC10RGB = format: functional, cell-based, Homo sapiens; details: Homo sapiens, RCC10RGB;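 note: growth inhibition of human RCC10RGB cells, read out by a cell viability assay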
Description: SANGER: Inhibition of human RCC10RGB cell growth in a cell viability assay.

HCC1954 = format: functional, cell-based, Homo sapiens; details: Homo sapiens, HCC1954;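 note: growth inhibition of human HCC1954 cells, read out with a cell viability assay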
Description: SANGER: Inhibition of human HCC1954 cell growth in a cell viability assay.

SW 954 = format: functional, cell-based, Homo sapiens; details: Homo sapiens, SW 954;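 note: growth inhibition of SW954 human cancer cells, read out as cell viability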
Description: SANGER: Inhibition of human SW954 cell growth in a cell viability assay.

NUGC-3 = format: functional, cell-based, Homo sapiens; details: Homo sapiens, NUGC-3;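 note: growth inhibition of human NUGC-3 cells, read out with a cell viability assay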
Description: SANGER: Inhibition of human NUGC-3 cell growth in a cell viability assay.

COR-L105 = format: functional, cell-based, Homo sapiens; details: Homo sapiens, COR-L105;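 note: cell growth inhibition determined with a viability assay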
Description: SANGER: Inhibition of human COR-L105 cell growth in a cell viability assay.

NB6 = format: functional, cell-based, Homo sapiens; details: Homo sapiens, NB6;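 note: growth inhibition of NB6 cells, read out by a cell viability assay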
Description: SANGER: Inhibition of human NB6 cell growth in a cell viability assay.

NCI-H1437 = format: functional, cell-based, Homo sapiens; details: Homo sapiens, NCI-H1437;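 note: growth inhibition of human NCI-H1437 cells, read out by a cell viability assay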
Description: SANGER: Inhibition of human NCI-H1437 cell growth in a cell viability assay.

SMILES: O=C(NOCC1CC1)c1ccc(F)c(F)c1Nc1ccc(I)cc1Cl [CI-1040]
- IC50 (NB5): 4600 nM
- IC50 (LU-134-A): > 10000 nM
- IC50 (Hs-578T): 5540 nM
- IC50 (MS-1): 8880 nM
- IC50 (EW-18): > 10000 nM
- IC50 (no-11): > 10000 nM
- IC50 (CTB-1): 3470 nM
- IC50 (CAL-72): > 10000 nM
- IC50 (NCI-H661): > 10000 nM
- IC50 (SW1710): 5620 nM
- IC50 (SBC-5): > 10000 nM
- IC50 (SK-PN-DW): > 10000 nM
- IC50 (MCF7): > 10000 nM
- IC50 (HCC1419): > 10000 nM
- IC50 (CCRF-CEM): > 10000 nM
- IC50 (HCC38): > 10000 nM
- IC50 (TE-9): > 10000 nM
- IC50 (SK-MEL-28): 304 nM
- IC50 (A204): > 10000 nM
- IC50 (M14): 155 nM
- IC50 (HuP-T4): 1180 nM
- IC50 (CW-2): > 10000 nM
- IC50 (U-266): 7560 nM
- IC50 (A-427): 3600 nM
- IC50 (PANC-08-13): > 10000 nM
- IC50 (UACC-62): > 10000 nM
- IC50 (NCI-H727): 2920 nM
- IC50 (RD): 2450 nM
- IC50 (NCI-H1581): 8260 nM
- IC50 (NB13): > 10000 nM
- IC50 (NCI-H2347): > 10000 nM
- IC50 (ETK-1): > 10000 nM
- IC50 (BE-13): 7340 nM
- IC50 (CAL-120): > 10000 nM
- IC50 (CGTH-W-1): 3860 nM
- IC50 (NOS-1): > 10000 nM
- IC50 (NCI-H1299): > 10000 nM
- IC50 (FaDu): 5560 nM
- IC50 (RS4-11): 5670 nM
- IC50 (DMS-114): > 10000 nM
- IC50 (UO-31): > 10000 nM
- IC50 (ALL-PO): 4360 nM
- IC50 (KMOE-2): 198 nM
- IC50 (NB10): 5890 nM
- IC50 (U-251): > 10000 nM
- IC50 (PC-3): > 10000 nM
- IC50 (RCC10RGB): > 10000 nM
- IC50 (HCC1954): > 10000 nM
- IC50 (SW 954): 8970 nM
- IC50 (NUGC-3): 5490 nM
- IC50 (COR-L105): 6650 nM
- IC50 (NB6): > 10000 nM
- IC50 (NCI-H1437): 1550 nM

SMILES: C=CCNC1=C2C[C@@H](C)C[C@H](OC)[C@H](O)[C@@H](C)/C=C(\C)[C@H](OC(N)=O)[C@@H](OC)/C=C\C=C(/C)C(=O)NC(=CC1=O)C2=O [TANESPIMYCIN]
- IC50 (NB5): > 1000 nM
- IC50 (LU-134-A): 261 nM
- IC50 (Hs-578T): 72.1 nM
- IC50 (MS-1): > 1000 nM
- IC50 (EW-18): 389 nM
- IC50 (no-11): 370 nM
- IC50 (CTB-1): 328 nM
- IC50 (CAL-72): > 1000 nM
- IC50 (NCI-H661): 611 nM
- IC50 (SW1710): 295 nM
- IC50 (SBC-5): 201 nM
- IC50 (SK-PN-DW): > 1000 nM
- IC50 (MCF7): 96.8 nM
- IC50 (HCC1419): 146 nM
- IC50 (CCRF-CEM): > 1000 nM
- IC50 (HCC38): 301 nM
- IC50 (TE-9): 218 nM
- IC50 (SK-MEL-28): 113 nM
- IC50 (A204): 22.5 nM
- IC50 (M14): 79.1 nM
- IC50 (HuP-T4): 129 nM
- IC50 (CW-2): > 1000 nM
- IC50 (U-266): > 1000 nM
- IC50 (A-427): 420 nM
- IC50 (PANC-08-13): 532 nM
- IC50 (UACC-62): 322 nM
- IC50 (NCI-H727): > 1000 nM
- IC50 (RD): 191 nM
- IC50 (NCI-H1581): 103 nM
- IC50 (NB13): 368 nM
- IC50 (NCI-H2347): 148 nM
- IC50 (ETK-1): 159 nM
- IC50 (BE-13): > 1000 nM
- IC50 (CAL-120): 534 nM
- IC50 (CGTH-W-1): 23.5 nM
- IC50 (NOS-1): 975 nM
- IC50 (NCI-H1299): 163 nM
- IC50 (FaDu): 2.09 nM
- IC50 (RS4-11): > 1000 nM
- IC50 (DMS-114): > 1000 nM
- IC50 (UO-31): 205 nM
- IC50 (ALL-PO): > 1000 nM
- IC50 (NB10): > 1000 nM
- IC50 (U-251): 105 nM
- IC50 (PC-3): 515 nM
- IC50 (RCC10RGB): > 1000 nM
- IC50 (HCC1954): > 1000 nM
- IC50 (SW 954): 292 nM
- IC50 (NUGC-3): 145 nM
- IC50 (COR-L105): > 1000 nM
- IC50 (NB6): > 1000 nM
- IC50 (NCI-H1437): 122 nM

Source: ChEMBL document CHEMBL1201861, “Genomics of Drug Sensitity in Cancer screening data, Wellcome Trust Sanger Institute”
